Assay results as given in article PMC3893891 (Journal of biomolecular screening, 2012).

Key:
Format in all cases: biochemical
Conditions in all cases: OMFP substrate
[1] = target: T1, PPM1A (Homo sapiens, UniProt P35813); experiment: Phosphatase assay of PPM1A
T1 sequence (P35813 1-382): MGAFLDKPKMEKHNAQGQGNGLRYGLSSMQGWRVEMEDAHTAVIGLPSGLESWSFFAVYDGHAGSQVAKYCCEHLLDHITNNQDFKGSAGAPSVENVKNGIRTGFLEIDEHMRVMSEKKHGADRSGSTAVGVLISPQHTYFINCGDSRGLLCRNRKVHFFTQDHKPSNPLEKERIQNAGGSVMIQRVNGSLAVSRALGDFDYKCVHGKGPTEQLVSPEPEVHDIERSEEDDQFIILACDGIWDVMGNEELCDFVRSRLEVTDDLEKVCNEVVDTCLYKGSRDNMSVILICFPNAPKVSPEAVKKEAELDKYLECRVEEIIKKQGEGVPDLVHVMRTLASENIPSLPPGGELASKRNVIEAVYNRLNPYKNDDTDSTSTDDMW

[2] = target: T2, PTP1B (Homo sapiens, UniProt P18031); experiment: Phosphatase assay of PTP1B
T2 sequence (P18031 1-435): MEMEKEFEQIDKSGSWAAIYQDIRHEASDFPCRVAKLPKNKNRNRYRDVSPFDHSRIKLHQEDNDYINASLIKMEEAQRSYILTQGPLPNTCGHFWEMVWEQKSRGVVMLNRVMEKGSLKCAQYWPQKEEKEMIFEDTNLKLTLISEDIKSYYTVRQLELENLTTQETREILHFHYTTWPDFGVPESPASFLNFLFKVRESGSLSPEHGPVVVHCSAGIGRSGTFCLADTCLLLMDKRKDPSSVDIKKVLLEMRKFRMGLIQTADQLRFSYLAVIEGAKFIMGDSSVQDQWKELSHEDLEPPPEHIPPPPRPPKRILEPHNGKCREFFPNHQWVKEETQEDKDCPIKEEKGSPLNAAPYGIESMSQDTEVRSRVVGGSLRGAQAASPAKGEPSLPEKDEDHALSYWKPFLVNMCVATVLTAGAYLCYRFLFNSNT

[3] = target: T3, Scp1 (Homo sapiens, UniProt Q9GZU7); experiment: Phosphatase assay of Scp1
T3 sequence (Q9GZU7 1-261): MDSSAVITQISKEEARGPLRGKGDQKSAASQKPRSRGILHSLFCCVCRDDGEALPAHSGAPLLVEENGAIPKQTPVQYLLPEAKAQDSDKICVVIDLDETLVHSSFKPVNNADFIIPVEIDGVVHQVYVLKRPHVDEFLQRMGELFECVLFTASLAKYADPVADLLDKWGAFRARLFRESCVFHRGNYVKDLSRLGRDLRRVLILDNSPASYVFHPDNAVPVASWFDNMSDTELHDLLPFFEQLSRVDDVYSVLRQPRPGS

O=C(N/N=C/c1ccc(Sc2ccccn2)o1)c1cccc([N+](=O)[O-])c1 [MLS000700592]
does not significantly inhibit: inhibition of PPM1A phosphatase activity [1] | inhibition of PTP1B phosphatase activity [2] | inhibition of Scp1 phosphatase activity [3]

O=C(N/N=C/c1ccc(Sc2ccccn2)o1)c1ccccc1 [NCGC00241225]
does not significantly inhibit: inhibition of PPM1A phosphatase activity [1] | inhibition of PTP1B phosphatase activity [2] | inhibition of Scp1 phosphatase activity [3]
